Test results: patent US6855730B2, “3-methylidenyl-2-indolinone modulators of protein kinase” (Sugen, Inc., priority 1998, dated 2005)

Target: T1, chimeric receptor having the extra-cellular domain of EGF-R and the intra-cellular domain of Her2 (Homo sapiens, UniProt P04626)
T1 construct: fused on or other part: the same chimera
Test: EGF-induced Her2-driven BrdU incorporation
Type: cell-based
Settings: read-out: BrdU HER 2 driven IC50
Procedure: The cellular/catalytic assays described herein are performed in an ELISA format. The general procedure is as follows: a compound is introduced to cells expressing the test kinase, either naturally or recombinantly, for a selected period of time after which, if the test kinase is a receptor, a ligand known to activate the receptor is added. The cells are lysed and the lysate is transferred to the wells of an ELISA plate previously coated with a specific antibody recognizing the substrate of the enzymatic phosphorylation reaction. Non-substrate components of the cell lysate are washed away and the amount of phosphorylation on the substrate is detected with an antibody specifically recognizing phosphotyrosine compared with control cells that were not contacted with a test compound. The cellular/biologic assays described herein measure the amount of DNA made in response to activation of a test kinase, which is a general measure of a proliferative response. The general procedure for this assay is as follows: a compound is introduced to cells expressing the test kinase, either naturally or recombinantly, for a selected period of time after which, if the test kinase is a receptor, a ligand known to activate the receptor is added. After incubation at least overnight, a DNA labeling reagent such as Bromodeoxyuridine (BrdU) or 3H-thymidine is added. The amount of labeled DNA is detected with either an anti-BrdU antibody or by measuring radioactivity and is compared to control cells not contacted with a test compound.
EGF-Induced Her2-Driven BrdU Incorporation
Protocol • (1) Cells-are seeded at 8000 cells/well in DMEM, 10% CS, 2mM Gln in a 96-well plate. Cells are incubated overnight at 37° C. in 5% CO2. • (2) After 24 hours, the cells are washed with PBS, and then are serum starved in serum free medium (0% CS DMEM with 0.1% BSA) for 24 hours. • (3) On day 3, ligand (EGF=2 nM, prepared in DMEM with 0.1% BSA) and test compounds are added to the cells simultaneously. The negative control wells receive serum free DMEM with 0.1% BSA only, the positive control cells receive the ligand (EGF) but no test compound. Test compounds are prepared in serum free DMEM with ligand in a 96 well plate, and serially diluted for 7 test concentrations. • (4) After 20 hours of ligand activation, diluted BrdU labeling reagent (1:100 in DMEM, 0.1% BSA) is added and the cells are incubated with BrdU (final concentration=10 μM) for 1.5 hours. • (5) After incubation with labeling reagent, the medium is removed by decanting and tapping the inverted plate on a paper towel. FixDenat solution is added (50 μl/well) and the plates are incubated at room temperature for 45 minutes on a plate shaker. • (6) The FixDenat solution is thoroughly removed by decanting and tapping the inverted plate on a paper towel. Milk is added (5% dehydrated milk in PBS, 200 μ/well) as a blocking solution and the plate is incubated for 30 minutes at room temperature on a plate shaker. • (7) The blocking solution is removed by decanting and the wells are washed once with PBS. Anti-BrdU-POD solution (1:100 dilution in PBS, 1% BSA) is added (100 μl/well) and the plate is incubated for 90 minutes at room temperature on a plate shaker. • (8) The antibody conjugate is thoroughly removed by decanting and rinsing the wells 5 times with PBS, and the plate is dried by inverting and tapping on a paper towel. • (9) TMB substrate solution is added (100 μl/well) and incubated for 20 minutes at room temperature on a plate shaker until color development is sufficient for photometric detection. • (10) The absorbance of the samples are measured at 410 nm (in “dual wavelength” mode with a filter reading at 490 nm, as a reference wavelength) on a Dynatech ELISA plate reader.

T1 sequence (P04626 676-1255 limits assumed, change not shown): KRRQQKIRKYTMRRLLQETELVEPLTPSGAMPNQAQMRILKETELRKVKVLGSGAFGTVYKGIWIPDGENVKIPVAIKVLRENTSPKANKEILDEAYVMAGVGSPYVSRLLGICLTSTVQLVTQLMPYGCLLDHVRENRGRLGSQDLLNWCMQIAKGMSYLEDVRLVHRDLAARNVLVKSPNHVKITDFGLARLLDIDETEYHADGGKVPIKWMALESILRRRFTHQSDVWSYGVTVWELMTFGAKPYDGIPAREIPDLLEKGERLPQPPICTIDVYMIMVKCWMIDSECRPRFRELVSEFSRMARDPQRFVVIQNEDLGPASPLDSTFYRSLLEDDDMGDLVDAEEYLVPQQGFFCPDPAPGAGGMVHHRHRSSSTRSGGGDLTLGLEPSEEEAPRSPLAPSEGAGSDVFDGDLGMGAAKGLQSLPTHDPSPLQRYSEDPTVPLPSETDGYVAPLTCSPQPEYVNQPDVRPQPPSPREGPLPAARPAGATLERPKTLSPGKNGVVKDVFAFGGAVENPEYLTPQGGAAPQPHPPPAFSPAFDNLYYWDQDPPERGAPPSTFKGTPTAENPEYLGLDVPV

| Structure (SMILES) | IC50 [µM] |
| --- | --- |
| COc1cc(C)c(C=C2C(=O)Nc3ccccc32)cc1C(C)C [Example 8, 3-(5-Isopropyl-4-methoxy-2-methylbenzylidene)-1,3-dihydroindol-2-one] | 33.4 |
| COc1cc(C)c(/C=C2/C(=O)Nc3ccc(Br)cc32)cc1C(C)C [Example 36, 5-Bromo-3-(5-isopropyl-4-methoxy-2-methyl-benzylidene)-1,3-dihydroindol-2-one] | 21.4 |
| CC1(C)CCc2cc(/C=C3/C(=O)Nc4ccc(F)cc43)ccc2O1 [Example 23, 3-(2,2-Dimethylchroman-6-ylmethylene)-5-fluoro-1,3-dihydroindol-2-one] | 27.1 |
| CC1(C)CCc2cc(/C=C3/C(=O)Nc4ccc(Cl)cc43)ccc2O1 [Example 15, 5-Chloro-3-(2,2-dimethyl-chroman-6-ylmethylene)-1,3-dihydroindol-2-one] | 4.4 |
| COc1cc(C)c(/C=C2/C(=O)Nc3ncccc32)cc1C(C)C [Example 45, 3-(5-Isopropyl-4-methoxy-2-methylbenzylidene)-1,3-dihydro-pyrrolo[2,3-b]pyridin-2-one] | > 50 |
| COc1cc(C)c(/C=C2/C(=O)Nc3ccc(F)cc32)cc1C(C)C [Example 30, 5-Fluoro-3-(5-isopropyl-4-methoxy-2-methyl-benzylidene)-1,3-dihydroindol-2-one] | 8.1 |
| COc1ccc(/C=C2/C(=O)Nc3ccccc32)cc1C1CCCC1 [Example 10, 3-(3-Cyclopentyl-4-methoxybenzylidene)-1,3-dihydroindol-2-one] | 14.1 |
| CC(=O)Nc1ccc2c(c1)NC(=O)/C2=C/c1ccc(OCCN2CCOCC2)c(C2CCCCC2)c1 [Example 16, N-{3-[3-Cyclohexyl-4-(2-morpholin-4-ylethoxy)-benzylidene]-2-oxo-2,3-dihydro-1H-indol-6-yl}-acetamide] | 4.2 |
| COc1c(C(C)C)cc(/C=C2/C(=O)Nc3ccc(C(C)=O)cc32)cc1C(C)C [Example 5, 5-Acetyl-3-(3,5-diisopropyl-4-methoxybenzylidene)-1,3dihydroindol-2-one] | 10.5 |
| COc1c(C(C)C)cc(/C=C2/C(=O)Nc3ccc(N)cc32)cc1C(C)C [Example 20, 5-Amino-3-(3,5-diisopropyl-4-methoxy-benzylidene)-1,3-dihydroindol-2-one] | 15.7 |
| COc1c(C(C)C)cc(/C=C2/C(=O)Nc3ccc(C)cc32)cc1C(C)C [Example 19, 3-(3,5-Diisopropyl-4-methoxybenzylidene)-5-methyl-1,3-dihydroindol-2-one] | 3.3 |
| COc1ccc(/C=C2/C(=O)Nc3ncccc32)cc1C1CCCC1 [Example 47, 3-(3-Cyclopentyl-4-methoxybenzylidene)-1,3-dihydropyrrolo[2,3-b]pyridin-2-one] | > 50 |
| COc1cc(C)c(C=C2C(=O)Nc3ccc(Cl)cc32)cc1C(C)C [Example 9, 5-Chloro-3-(5-isopropyl-4-methoxy-2-methylbenzylidene)-1,3-dihydroindol-2-one] | 4.5 |
| COc1c(C(C)C)cc(/C=C2/C(=O)Nc3cc(O)ccc32)cc1C(C)C [Example 4, 3-(3,5-Diisopropyl-4-methoxybenzylidene)-6-hydroxy-1,3-dihydroindol-2-one] | 4.4 |
| COc1c(C)cc(/C=C2/C(=O)Nc3ccc(Cl)cc32)cc1C [Example 21, 5-Chloro-3-(4-methoxy-3,5-dimethylbenzylidene)-1,3-dihydroindol-2-one] | 6.6 |
| COc1ccc2c(c1)/C(=C\c1cc(C(C)C)c(OC)c(C(C)C)c1)C(=O)N2 [Example 17, 3-(3,5-Diisopropyl-4-methoxybenzylidene)-5-methoxy-1,3-dihydroindol-2-one] | 5.5 |
| COc1cc(/C=C2/C(=O)Nc3ccccc32)c(-c2cccs2)cc1OC [Example 39, 3-(4,5-Dimethoxy-2-thiophen-2-ylbenzylidene)-1,3-dihydroindol-2-one] | 5.4 |

More lines, now with the values ahead:

| IC50 [µM] | Structure (SMILES) |
| --- | --- |
| 31.1 | CC(=O)Nc1ccc2c(c1)NC(=O)/C2=C/c1ccc(OCCN2CCOCC2)c(-c2ccsc2)c1 [Example 50, N-{3-[4-(2-Morpholin-4-ylethoxy)-3-thiophen-3-ylbenzylidene]-2-oxo-2,3-dihydro-1H-indol-6-yl}-acetamide] |
| 9.1 | COc1cc(C=C2C(=O)Nc3ccccc32)c(-c2ccccc2OC)cc1OC [Example 49, 3-(4,5,2′-Trimethoxybiphenyl-2-ylmethylene)-1,3-dihydroindol-2-one] |
| 14.4 | COc1ccc(/C=C2/C(=O)Nc3ccc(Cl)cc32)cc1-c1cccs1 [Example 59, 5-chloro-3-(4-Methoxy-3-thiophen-2-ylbenzylidene)-1,3-dihydroindol-2-one] |
| 16.5 | COc1ccc(/C=C2/C(=O)Nc3ccccc32)cc1C(C)C [Example 7, 3-(3-Isopropyl-4-methoxybenzylidene)-1,3-dihydroindol-2-one] |
| 23.4 | COc1cc(C)c(C=C2C(=O)Nc3cc(NC(C)=O)ccc32)cc1C(C)C [Example 27, N-[3-(5-Isopropyl-4-methoxy-2-methyl-benzylidene)-2-oxo-2,3-dihydro-1H-indol-6-yl]-acetamide] |
| 28.7 | COc1ccc(/C=C2/C(=O)Nc3cc(NC(C)=O)ccc32)cc1-c1cccs1 [Example 31, N-[3-(4-Methoxy-3-thiophen-2-ylbenzylidene)-2-oxo-2,3-dihydro-1H-indol-6-yl]-acetamide] |
| > 50 | COc1ccc(/C=C2/C(=O)Nc3cc(NC(C)=O)ccc32)cc1-c1ccsc1 [Example 18, N-[3-(4-Methoxy-3-thiophene-3-ylbenzylidene)-2-oxo-2,3-dihydro-1H-indol-6-yl]-acetamide] |
| 20.4 | COc1ccc(C=C2C(=O)Nc3cc(NC(C)=O)ccc32)cc1-c1cccc(NC(C)=O)c1 (mixture of isomers) [Example 63, N-[3-(3′-Acetylamino-6-methoxybiphenyl-3-ylmethylene)-2-oxo-2,3-dihydro-1H-indol-6-yl]-acetamide] |
| 13.8 | COc1ccc(/C=C2/C(=O)Nc3ccccc32)cc1-c1ccsc1 [Example 35, 3-(4-Methoxy-3-thiophen-3-ylbenzylidene)-1,3-dihydroindol-2-one] |
| > 50 | COc1cccc(-c2cc(OC)c(OC)cc2/C=C2/C(=O)Nc3ccc(Cl)cc32)c1 [Example 61, 5-Chloro-3-(4,5-3′-Trimethoxybiphenyl-2-ylmethylene)-1,3-dihydroindol-2-one] |
| 9 | COc1ccc(/C=C2/C(=O)Nc3ccc(Br)cc32)cc1-c1ccccc1 [Example 13, 5-Bromo-3-(6-methoxybiphenyl-3-ylmethylene)-1,3-dihydroindol-2-one] |
| 25.3 | CCOc1cccc(-c2cc(C=C3C(=O)Nc4ccccc43)ccc2OC)c1 [Example 46, 3-(3′-Ethoxy-6-methoxybiphenyl-3-ylmethylene)-1,3-dihydroindol-2-one] |
| 40 | COc1ccc(/C=C2/C(=O)Nc3ccc(Cl)cc32)cc1-c1cccnc1 [Example 60] |
| 8.1 | COc1ccc(C=C2C(=O)Nc3ccccc32)cc1-c1cccc(NC(C)=O)c1 [Example 29, N-[2′-Methoxy-5′-(2-oxo-1,2-dihydroindol-3-ylidenemethyl)-biphenyl-3-yl]-acetamide] |
| 9.1 | COc1c(C(C)C)cc(/C=C2/C(=O)Nc3cc(NC(C)=O)ccc32)cc1C(C)C [Example 3, N-[3-(3,5-Diisopropyl-4-methoxybenzylidene)-2-oxo-2,3-dihydro-1H-indol-6-yl]-acetamide] |
| 22.6 | CC(=O)Nc1ccc2c(c1)NC(=O)/C2=C/c1ccc(OCCN2CCOCC2)c(-c2cccs2)c1 [Example 40, N-{3-[4-(2-Morpholin-4-ylethoxy)-3-thiophen-2-ylbenzylidene]-2-oxo-2,3-dihydro-1H-indol-6-yl}-acetamide] |
